The values that follow come from patent US4906666A, “Hydroxamic acids and pharmaceutical compositions containing them, and anti-allergic use thereof” (Boehringer Mannheim GmbH, priority 1986, dated 1990).

Structures are written as SMILES.

In experiment [1] the test system is passively sensitized strip of pulmonary parenchyma (guinea pig). As to the kind of experiment: Inhibition of the antigen-induced constriction on the passively sensitized strip of pulmonary parenchyma, Superfusion. It counts as cell-based. Particulars: Cavia porcellus, concentration 20 μM. An excerpt:
(§1) The inhibiting action of the compounds according to the invention was expressed as a percentage reduction of the constriction amplitude of the "specimens with the test substance" in proportion to the "untreated control constrictions."

For experiment [2] the test system is unchanged. As to the kind of experiment: Inhibition of antigen-caused constriction of passively sensitized guinea pig pulmonary parenchyma strips in vitro (Organ Bath). It counts as cell-based, Pirbright-White guinea pigs. Particulars: concentration 5 μg/ml, 20 min preincubation at 37° C., ovalbumin constriction; for inhibition at 5 µg/mL: Cavia porcellus, read-out: Inhibition (%) of the antigen-induced constriction, Organ Bath.
Text: Activity of the inventive compounds was shown by the following testing in vitro. […] For this study of the inventive compounds, a measurement was made of the inhibition of the antigen-caused constriction of passively sensitized strips of guinea pig lung parenchyma, as described herewith:
Pirbright-White guinea pigs were stunned by a blow to the neck and bled. The lungs were flushed largely free of blood in situ with Krebs' buffer, pH 7.4.
Then the lung was removed, cut into strips (approx. 20×4×4 mm) and the strips were passively sensitized for one hour at room temperature with a 1:50 dilution of a homologous anti-ovalbumin antiserum and then washed once with Krebs' buffer.
The antiserum had previously been produced as described by Davies et al, (Quantitative studies on anaphylaxis in guinea pigs passively sensitized with homologous antibody. Inter. Arch. Allergy 41, 648-654 (1971)) in guinea pigs of the same strain by the repeated injection of ovalbumin (2×crystallized) with the addition of complete Freund's adjuvant.
Until it was used, the antiserum was stored undiluted at -18° C.
Then the lung strips were suspended singly in 10-milliliter water baths with a bias weight of 1.2 g on an isometric measuring receptable.
Then the baths were filled with Krebs' buffer and continually gassed at 37°° C. with O2 (95%) and CO2 (5%).
The constrictions of the lung strips were recorded through an amplifier on a plotter.
After a 30-minute habituating phase, histamine control spasms were produced in order to establish the reactivity of the lung specimens, washed, then the test substance was preincubated for 20 minutes at 37° C., and then the ovalbumin constriction was produced.
as §1

As to `CCCCCC(O)c1cccc(OCCCCSCCC(=O)Nc2nn[nH]n2)c1` (stereo not shown) [Example 4e, N--[(1H)-tetrazol-5-yl]-S--[4-(3-{1-hydroxyhexyl}-phenoxy)-butyl]-3-thiopropionic acid amide], the inhibition at 20 µM in experiment [1] amounted to 73%.

On to `CCCCCC(O)c1cccc(OCCCSCCCC(=O)N(C)O)c1` (stereo not shown) [Example 2l, N--hydroxy-N--methyl-S--[3-(3-{1-hydroxyhexyl}-phenoxy)-propyl]-4-thiobutyric acid amide], for which the inhibition at 20 µM in experiment [1] came to 44%.

`CCCc1c(OCC#CCSCCC(=O)N(C)O)ccc(C(C)=O)c1O` [Example 2g, N--hydroxy-N--methyl-S--[4-(acetyl-3-hydroxy-2-propyl-phenoxy)-but-2-ynyl]-3-thiopropionic acid amide]: the “Inhibition (%) of the antigen-induced constriction, Organ Bath” value in experiment [2] stood at 67%.

In the case of `CCCCCC(O)c1cccc(OCCCCSCCC(=O)NO)c1` (stereo not shown) [Example 9c, N--hydroxy-S--[4-(3-{1-hydroxy-hexyl}phenoxy)-butyl]-3-thiopropionic acid amide], in experiment [1], the inhibition at 20 µM turned out to be 27%.

With `CCCCCC(O)c1cccc(OCCCCSCCC(=O)N(C)O)c1` (stereo not shown) [Example 2n, N--hydroxy-N--methyl-S--[4-(3-{1-hydroxyhexyl}-phenoxy)-butyl]-3-thiopropronic acid amide], the inhibition at 20 µM in experiment [1] was 33%.

On to `CCCCCC(O)c1cccc(OCC=CCSCCC(=O)Nc2nn[nH]n2)c1` (stereo not shown) [Example 4f, N--[(1H)-tetrazol-5-yl]-S--[4-(3-{1-hydroxyhexyl}-phenoxy)-but-2-enyl]-3-thiopropionic acid amide], for which the inhibition at 20 µM in experiment [1] was found to be 26%.

Turning to `CCCCCC(O)c1cccc(OCC(O)CSCCCC(=O)NO)c1` (stereo not shown) [Example 9b, N--hydroxy-S--[3-(3-{1-hydroxy-hexyl}-phenoxy)-2-hydroxy-propyl]-4-thiobutyric acid amide], in experiment [1], the inhibition at 20 µM is 21%.

For the compound `C=CCc1c(OCCCSCCc2nn[nH]n2)ccc(C(C)=O)c1O` [Example 6d, 5-{S--[3-(4-acetyl-3-hydroxy-2-allylphenoxy)-propyl]-2-thioethyl}-(1H)-tetrazole], the inhibition at 5 µg/mL in experiment [2] stood at 24%.

For `CCCCCC(O)c1cccc(OCCCSCCCC(=O)Nc2nn[nH]n2)c1` (stereo not shown) [Example 4c, N--[(1H)-tetrazol-5-yl]-S--[3-(3-{1-hydroxyhexyl}-phenoxy)-propyl]-4-thiobutyric acid amide], the inhibition at 20 µM in experiment [1] was found to be 29%.

As to `CCCc1c(OCCCCSCCC(=O)N(C)O)ccc(C(C)=O)c1O` [Example 2c, N--hydroxy-N--methyl-S--[4-(4-acetyl-3-hydroxy-2-propyl-phenoxy)-butyl]-3-thio-propionic acid amide], in experiment [1], the inhibition at 20 µM worked out at 72%.

For the compound `CCCCCc1cccc(OCCCSCCC(=O)N(C)O)c1` [Example 2b, N--hydroxy-N--methyl-S--[3-(3-pentylphenoxy)-propyl]-3-thiopropionic acid amide], the inhibition at 20 µM in experiment [1] is 58%.

Consider `CCCc1c(OCCCSCCc2nn[nH]n2)ccc(C(C)=O)c1O` [Example 6b, 5-{S--[3-(4-acetyl-3-hydroxy-2-propylphenoxy)-propyl]-2-thioethyl}-(1H)-tetrazole], for which the inhibition at 20 µM in experiment [1] came out at 55%.

Consider `CCCCCC(O)c1cccc(OCCCSCCCC(=O)NO)c1` (stereo not shown) [Example 9a, N--hydroxy-S--[3-(3-{1-hydroxy-hexyl}-phenoxy)-propyl]-4-thiobutyric acid amide], for which the inhibition at 20 µM in experiment [1] was 11%.

In the case of `CCCCCC(O)c1cccc(OCC(O)CSCCCC(=O)N(C)O)c1` (stereo not shown) [Example 2m, N--hydroxy-N--methyl-S--[3-(3-{1-hydroxyhexyl}-phenoxy)-2-hydroxypropyl]-4-thiobutyric acid amide], in experiment [1], the inhibition at 20 µM came to 29%.

Consider `CCCc1c(OCCCSCCC(=O)ONC2CCCCC2)ccc(C(C)=O)c1O` [Example 2t, O--[S--(3-{4-acetyl-3-hydroxy-2-propylphenoxy}-propyl)-3-thiopropionyl]-cyclohexyl-hydroxylamine], for which the inhibition at 20 µM in experiment [1] amounted to 15%.

On to `CCCc1c(OCCCSCCC(=O)N(C)O)ccc(C(C)=O)c1O` [Example 2i, N--hydroxy-N--methyl-S--[3-(4-acetyl-3-hydroxy-2-propyl-phenoxy)-propyl]-3-thio-propionic acid amide], for which, in experiment [1], the inhibition at 20 µM amounted to 63%. Moreover, in experiment [2], the inhibition at 5 µg/mL is 36%.

Turning to `CCCCCc1ccccc1OCCCSCCc1nn[nH]n1` [Example 6c, 5-{S--[3-(2-pentylphenoxy)-propyl]-2-thioethyl}-(1H)-tetrazole], the inhibition at 20 µM in experiment [1] worked out at 13%.

As for `CCCCCC(O)c1cccc(OCC(O)CSCCCC(=O)Nc2nn[nH]n2)c1` (stereo not shown) [Example 4d], the inhibition at 20 µM in experiment [1] was 83%.

Regarding `O=C(CCSCCCOc1ccc(Cl)c(Cl)c1)Nc1nn[nH]n1` [Example 4g, N--[(1H)-tetrazol-5-yl]-S--[3-(3,4-dichlorophenoxy)-propyl]-3-thiopropionic acid amide], in experiment [1], the inhibition at 20 µM came out at 75%.

As to `CCCc1c(OCCCSCCSc2nn[nH]n2)ccc(C(C)=O)c1O` [Example 7, {S-[3-(4-Acetyl-3-hydroxy-2-propylphenoxy)-propyl]-2-thioethyl}-5-mercapto-(1H)-tetrazole], in experiment [1], the inhibition at 20 µM worked out at 29%.

Take `CCCc1c(OCCCSCC(=O)N(C)O)ccc(C(C)=O)c1O` [Example 1, N-Hydroxy-N-methyl-S-[3-(4-acetyl-3-hydroxy-2-propylphenoxy)-propyl]-thioacetamide]: in experiment [1], the inhibition at 20 µM stood at 39%.

As to `CCCCCC(O)c1cccc(OCC=CCSCCC(=O)N(C)O)c1` (stereo not shown) [Example 2o, N--hydroxy-N--methyl-S--[4-(3-{1-hydroxyhexyl}-phenoxy)-but-2-enyl]-3-thiopropionic acid amide], the inhibition at 20 µM in experiment [1] came out at 42%.

For the compound `CCCc1c(OCCCSCCCCCc2nn[nH]n2)ccc(C(C)=O)c1O` [Example 6a, 5-{S--[3-(4-acetyl-3-hydroxy-2-propylphenoxy)-propyl]-5-thiopentyl}-(1H)-tetrazole], the inhibition at 20 µM in experiment [1] stood at 70%.

In the case of `CCCc1c(OCCCCSCC(=O)N(C)O)ccc(C(C)=O)c1O` [Example 2f, N--hydroxy-N--methyl-S--[4-(4-acetyl-3-hydroxy-2-propyl-phenoxy)-butyl]-thioacetamide], in experiment [1], the inhibition at 20 µM was 48%.

Broadly, the inhibition is the share of the control response that was lost under treatment.
